Data on seven molecules can be found in article PMC4757417, “Functional and Structural Analysis of a β-Glucosidase Involved in β-1,2-Glucan Metabolism in Listeria innocua” (PLoS ONE, 2016).

pKi: −log10 of the molar value. Like-named read-outs stand apart in the source and are kept apart here.

In assay [1] the target is Aspergillus aculeatus BGL1 (AaBGL1). Set-up: method as in PMID 23537284. The conditions noted are these: cited from earlier work.
Assay [2] addresses T1, Lin1840r (Listeria innocua, UniProt Q92AS9). The assay can be described thus: Inhibition kinetics of hydrolytic activity toward pNP-β-Glc. Format: biochemical. The conditions noted are these: substrate pNP-β-Glc.
Assay [3] concerns the target T1, Lin1840r. Briefly: Kinetic analysis of hydrolysis of β-linked gluco-oligosaccharides and pNP-β-Glc by WT Lin1840r. Conditions: for kcat relative to that for Sop2 / kcat relative to those for Sop2 and Lam2 / kcat/Km relative to that for Sop2: WT Lin1840r; for specific activity: Lin1840r, 0.1 mM substrate at 20°C. Format: biochemical.
Assay [4] relates to JMB19063 (metagenomic GH3 β-glucosidase from compost). Set-up: method as in PMID 23580647. Conditions: 0.1 mM substrate, Cel2 at 50°C, estimated from the substrate consumption; cited from earlier work.
The subject of another assay is Lin1840r D270A mutant. The assay can be described thus: Hydrolytic activity of D270A mutant toward pNP-β-Glc.
In assay [5] the test system is Flavobacterium meningosepticum GH3 β-glucosidase (FmBGL). Also on record: method as in PMID 11851422. Conditions: cited from earlier work.
For the next assay, the system named is Lin1840r E473A mutant. The assay can be described thus: Hydrolytic activity of E473A mutant toward pNP-β-Glc.

T1 sequence (Q92AS9 entry or part of it): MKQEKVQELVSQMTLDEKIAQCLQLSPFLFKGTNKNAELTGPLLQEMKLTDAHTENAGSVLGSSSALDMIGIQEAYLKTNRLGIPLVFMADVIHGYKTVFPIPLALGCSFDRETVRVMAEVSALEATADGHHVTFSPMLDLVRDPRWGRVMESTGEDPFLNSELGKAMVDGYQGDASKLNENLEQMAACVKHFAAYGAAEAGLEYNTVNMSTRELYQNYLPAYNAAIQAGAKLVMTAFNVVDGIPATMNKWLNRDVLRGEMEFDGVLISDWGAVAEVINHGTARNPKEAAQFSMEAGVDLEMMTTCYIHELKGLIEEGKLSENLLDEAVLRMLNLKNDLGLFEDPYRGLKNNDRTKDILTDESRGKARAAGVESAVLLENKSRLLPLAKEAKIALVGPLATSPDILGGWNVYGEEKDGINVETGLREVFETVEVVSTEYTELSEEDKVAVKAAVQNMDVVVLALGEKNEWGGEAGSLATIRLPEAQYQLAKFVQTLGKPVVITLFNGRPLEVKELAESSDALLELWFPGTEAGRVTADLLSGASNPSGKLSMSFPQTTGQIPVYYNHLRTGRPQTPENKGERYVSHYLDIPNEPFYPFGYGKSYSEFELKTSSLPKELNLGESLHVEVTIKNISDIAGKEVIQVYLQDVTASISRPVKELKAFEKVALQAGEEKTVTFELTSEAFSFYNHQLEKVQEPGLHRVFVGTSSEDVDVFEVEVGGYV

In general, pKi refers to the Ki on a negative log10 scale, so that one unit is a factor of ten. Regarding `OC[C@H]1NC[C@H](O)[C@@H](O)[C@@H]1O` [DNJ, 1-deoxynojirimycin], the pKi is 5.62 in assay [1] and 3.54 at Lin1840r [2] (Ki).
For the molecule `OC[C@H]1CNC[C@@H](O)[C@@H]1O` [IFG, isofagomine D-tartrate], the pKi was 4.85 in assay [1] and 5.39 on Lin1840r [2] (read-out: Ki).
For `OC[C@H]1O[C@@H](O[C@H]2[C@H](O[C@H]3[C@H](O[C@H]4C(O)O[C@H](CO)[C@@H](O)[C@@H]4O)O[C@H](CO)[C@@H](O)[C@@H]3O)O[C@H](CO)[C@@H](O)[C@@H]2O)[C@H](O)[C@@H](O)[C@@H]1O` (stereo partly shown) [Sop4], the “kcat relative to that for Sop2” value on Lin1840r [3] is listed as “less than one-tenth”.
Take `OC[C@H]1O[C@@H](O[C@H]2[C@H](O[C@H]3[C@H](O[C@H]4[C@H](O[C@H]5C(O)O[C@H](CO)[C@@H](O)[C@@H]5O)O[C@H](CO)[C@@H](O)[C@@H]4O)O[C@H](CO)[C@@H](O)[C@@H]3O)O[C@H](CO)[C@@H](O)[C@@H]2O)[C@H](O)[C@@H](O)[C@@H]1O` (stereo partly shown) [Sop5]: the “kcat relative to that for Sop2” value at Lin1840r [3] is “less than one-tenth”.
For orientation: Km means the substrate concentration at which the rate is half of its maximum. Usually kcat stands for the number of substrate molecules converted per active site and unit of time at saturation. On to `O=[N+]([O-])c1ccc(O[C@@H]2O[C@H](CO)[C@@H](O)[C@H](O)[C@H]2O)cc1` [pNP-β-Glc, p-nitrophenyl-β-D-glucopyranoside], for which the specific activity in assay [4] is recorded as 11.8 U/mg; on Lin1840r [3], 1.12 U/mg. For the same molecule, the hydrolytic activity entry with Lin1840r D270A mutant and in the assay on Lin1840r E473A mutant was “no detectable hydrolytic activity” in each case. Moreover, in assay [5], the Km was 490 µM. The turnover number (kcat) in assay [5] was 39.1 s⁻¹.
cellobiose [Cel2]: the specific activity in assay [4] is reported as 0.077 U/mg. In assay [5] (judged from preliminary results), the “activity lower than toward pNP-β-Glc” value is recorded as “at least 100 times”. Also, at Lin1840r [3], the specific activity is listed as 8.9 × 10^−4 U/mg; the “kcat relative to those for Sop2 and Lam2” value is reported as “less than 1%”; the “kcat/Km relative to that for Sop2” value is recorded as “less than 0.05%”.
As for gentiobiose [Gen2], at Lin1840r [3], the “kcat relative to those for Sop2 and Lam2” value is listed as “less than 1%”; the “kcat/Km relative to that for Sop2” value is “less than 0.05%”.
